Assay results taken from patent US12637424B2, “Pharmaceutical salt of an arylpyrrole derivative” (SENTINEL ONCOLOGY LIMITED, priority 2020, dated 2026).

Columns and labels:
[1] = tested on: HeLa cells engineered to inducibly express oncogenic KRasG12V; assay: Wild-type versus KRAS HeLa cell viability (Cell Titre Blue); type: cell-based; details: Homo sapiens, KRAS G12V transgene, 72 hours
Method: Thus, atropisomer A-2 was tested on HeLa cells engineered to inducibly express wild-type or oncogenic […] transgenes using the FLP-in/T-Rex system (Invitrogen). Cells were plated, and then treated with or without doxycycline to induce transgene expression, and then treated with serially-diluted atropisomer A-2. After 72 hours of incubation, cell viability was assessed using the Cell Titre Blue reagent (Promega) and a BMG Pherastar plate reader. The effect of PBD inhibition on cell viability with either wild-type or oncogenic G12V KRAS was assessed using GraphPad Prism.

[2] = Oral bioavailability and brain exposure in mouse PK; type: in vivo, Male CD-1 mice; details: mice
Method: Atropisomer A-2 was evaluated in an in vivo mouse model to determine brain and plasma concentrations following p.o. and i.v. dosing. Male CD-1 mice were dosed with atropisomer A-2, either by i.v. administration (2 mg/kg) or by p.o. administration (10 mg/kg). Eight samples were taken for analysis in the i.v. leg at 2, 10, 30 min, 1, 2, 4, 8, and 24 (for i.v) and 9 samples in the p.o. leg at 15, 30 min, 1, 2, 4, 8, 24, 48 and 72 hrs. Atropisomer A-2 was formulated in 10% DMSO/[…] hydroxypropyl-beta-cyclodextrin (20% w/v in water) for i.v. and p.o. dosing. N=3 mice per time point. Post dosing, terminal blood samples were taken from individual animals and delivered into labelled polypropylene tubes containing anticoagulant (EDTA). The samples were held on wet ice for a maximum of 30 min while sampling of all the animals in the cohort was completed. The blood samples were centrifuged for plasma (4° C., 21100 g for 5 min) and the resulting plasma transferred into corresponding labelled tubes. Terminal brains from each PO dosed animal were excised, rinsed with saline and placed into pre-weighed labelled polypropylene tubes and the samples re-weighed prior to storage. Quantitative bioanalysis was carried out using liquid chromatography—mass spectroscopy was performed. The results are shown in Tables 14 and 15 below and in FIGS. 12 and 13.

[3] = target: T1, panel of ninety-seven kinases (Homo sapiens, UniProt Q05397); assay: DiscoverX KinomeScreen competition binding assay (kinase selectivity panel); details: PTK2; screened at 3000 nM
T1 construct: purchased DiscoverX; host or cells: E. coli (BL21-derived, T7 phage display) or HEK-293
T1 sequence (Q05397 whole entry): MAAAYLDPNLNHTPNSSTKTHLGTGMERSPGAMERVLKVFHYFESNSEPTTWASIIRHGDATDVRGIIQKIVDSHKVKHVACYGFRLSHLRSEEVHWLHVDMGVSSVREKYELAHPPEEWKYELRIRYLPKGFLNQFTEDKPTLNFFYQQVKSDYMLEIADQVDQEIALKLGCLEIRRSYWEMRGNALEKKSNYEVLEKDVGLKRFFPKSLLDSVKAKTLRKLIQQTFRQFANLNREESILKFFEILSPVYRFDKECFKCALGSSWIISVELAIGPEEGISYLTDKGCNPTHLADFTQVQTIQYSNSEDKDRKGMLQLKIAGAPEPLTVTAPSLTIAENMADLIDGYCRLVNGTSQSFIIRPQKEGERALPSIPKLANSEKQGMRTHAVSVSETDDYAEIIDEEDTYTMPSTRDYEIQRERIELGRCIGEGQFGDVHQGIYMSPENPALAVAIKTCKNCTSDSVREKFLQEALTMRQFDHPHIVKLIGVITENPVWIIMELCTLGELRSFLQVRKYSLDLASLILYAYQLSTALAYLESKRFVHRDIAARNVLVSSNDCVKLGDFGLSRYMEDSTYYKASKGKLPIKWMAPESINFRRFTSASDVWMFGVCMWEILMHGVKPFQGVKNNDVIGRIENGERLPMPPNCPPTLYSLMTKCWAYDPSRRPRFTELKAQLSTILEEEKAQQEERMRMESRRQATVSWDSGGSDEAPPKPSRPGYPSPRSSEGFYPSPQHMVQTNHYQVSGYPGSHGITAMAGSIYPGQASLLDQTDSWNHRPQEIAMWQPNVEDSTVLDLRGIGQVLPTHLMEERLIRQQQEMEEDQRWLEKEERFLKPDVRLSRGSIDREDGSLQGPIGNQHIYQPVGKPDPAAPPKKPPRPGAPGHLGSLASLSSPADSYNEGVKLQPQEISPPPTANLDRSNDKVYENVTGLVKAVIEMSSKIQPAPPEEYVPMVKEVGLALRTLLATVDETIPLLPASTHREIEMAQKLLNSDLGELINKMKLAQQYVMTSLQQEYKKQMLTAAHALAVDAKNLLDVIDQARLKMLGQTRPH
Method: (§1) This has been investigated by testing atropisomer A-2 for off-target activity against a panel of ninety-seven kinases distributed across the kinome at a concentration of 3 μM using the DiscoverX KinomeScreen assay. The DiscoverX KinomeScreen assay is a site-directed competition binding assay which measures the binding affinity of a compound to a kinase, by use of a solid supported control compound which can bind or capture the kinases in solution. In the absence of a kinase-inhibitor test compound, all of the kinase will bind to the solid support. If a kinase-inhibitor test compound is added to the assay mix, the amount of kinase binding to the solid support will be reduced, the extent of reduction being dependent on the potency of the test compound as a kinase inhibitor. […] For most assays, kinase-tagged T7 phage strains were grown in parallel in 24-well blocks in an E. coli host derived from the BL21 strain. E. coli were grown to log-phase and infected with T7 phage from a frozen stock (multiplicity of infection=0.4) and incubated with shaking at 32° C. until lysis (90-150 minutes). The lysates were centrifuged (6,000×g) and filtered (0.2 μm) to remove cell debris. The remaining kinases were produced in HEK-293 cells and subsequently tagged with DNA for qPCR detection. Streptavidin-coated magnetic beads were treated with biotinylated small molecule ligands for 30 minutes at room temperature to generate affinity resins for kinase assays. The liganded beads were blocked with excess biotin and washed with blocking buffer (SeaBlock (Pierce), 1% BSA, 0.05% Tween 20, 1 mM DTT) to remove unbound ligand and to reduce non-specific phage binding. […] Test compounds were prepared as 40× stocks in 100% DMSO and directly diluted into the assay. All reactions were performed in polypropylene 384-well plates in a final volume of 0.02 ml. […] The beads were then re-suspended in elution buffer (1×PBS, 0.05% Tween 20, 0.5 μM non-biotinylated affinity ligand) and incubated at room temperature with shaking for 30 minutes. The kinase concentration in the eluates was measured by qPCR. Compounds that bind the kinase active site and directly (sterically) or indirectly (allosterically) prevent kinase binding to the immobilized ligand, will reduce the amount of kinase captured on the solid support. […] The strength of binding of the test molecule to the kinase can be expressed as the percent control (% Ctrl) The compound(s) were screened at 3000 nM concentration, and results for primary screen binding interactions are reported as ‘% Ctrl’, where lower numbers indicate stronger hits in the matrix on the following page(s). [formula] • negative control=DMSO (100% Ctrl) • positive control=control compound (0% Ctrl)

[4] = target: T2, panel of ninety-seven kinases (Homo sapiens, UniProt Q9BVS4); assay: as above; details: RIOK2; screened at 3000 nM
T2 construct: purchased DiscoverX; host or cells: E. coli (BL21-derived, T7 phage display) or HEK-293
Method: as §1

[5] = target: T3, panel of ninety-seven kinases (Homo sapiens, UniProt P31749); assay: as above; details: AKT1; screened at 3000 nM
T3 construct: purchased DiscoverX; host or cells: E. coli (BL21-derived, T7 phage display) or HEK-293
Method: as §1

[6] = target: T4, panel of ninety-seven kinases (Homo sapiens, UniProt P50613); assay: as above; details: CDK7; screened at 3000 nM
T4 construct: purchased DiscoverX; host or cells: E. coli (BL21-derived, T7 phage display) or HEK-293
Method: as §1

[7] = target: T5, panel of ninety-seven kinases (Homo sapiens, UniProt Q9H093); assay: as above; details: NUAK2; screened at 3000 nM
T5 construct: purchased DiscoverX; host or cells: E. coli (BL21-derived, T7 phage display) or HEK-293
Method: as §1

[8] = target: T6, panel of ninety-seven kinases (Homo sapiens, UniProt P08069); assay: as above; details: IGF1R; screened at 3000 nM
T6 construct: purchased DiscoverX; host or cells: E. coli (BL21-derived, T7 phage display) or HEK-293
Method: as §1

[9] = target: T7, panel of ninety-seven kinases (Homo sapiens, UniProt Q16539); assay: as above; details: MAPK14; screened at 3000 nM
T7 construct: purchased DiscoverX; host or cells: E. coli (BL21-derived, T7 phage display) or HEK-293
Method: as §1

[10] = target: T8, panel of ninety-seven kinases (Homo sapiens, UniProt Q02156); assay: as above; details: PRKCE; screened at 3000 nM
T8 construct: purchased DiscoverX; host or cells: E. coli (BL21-derived, T7 phage display) or HEK-293
Method: as §1

[11] = target: T9, panel of ninety-seven kinases (Homo sapiens, UniProt O00750); assay: as above; details: PIK3C2B; screened at 3000 nM
T9 construct: purchased DiscoverX; host or cells: E. coli (BL21-derived, T7 phage display) or HEK-293
T9 sequence (O00750 whole entry): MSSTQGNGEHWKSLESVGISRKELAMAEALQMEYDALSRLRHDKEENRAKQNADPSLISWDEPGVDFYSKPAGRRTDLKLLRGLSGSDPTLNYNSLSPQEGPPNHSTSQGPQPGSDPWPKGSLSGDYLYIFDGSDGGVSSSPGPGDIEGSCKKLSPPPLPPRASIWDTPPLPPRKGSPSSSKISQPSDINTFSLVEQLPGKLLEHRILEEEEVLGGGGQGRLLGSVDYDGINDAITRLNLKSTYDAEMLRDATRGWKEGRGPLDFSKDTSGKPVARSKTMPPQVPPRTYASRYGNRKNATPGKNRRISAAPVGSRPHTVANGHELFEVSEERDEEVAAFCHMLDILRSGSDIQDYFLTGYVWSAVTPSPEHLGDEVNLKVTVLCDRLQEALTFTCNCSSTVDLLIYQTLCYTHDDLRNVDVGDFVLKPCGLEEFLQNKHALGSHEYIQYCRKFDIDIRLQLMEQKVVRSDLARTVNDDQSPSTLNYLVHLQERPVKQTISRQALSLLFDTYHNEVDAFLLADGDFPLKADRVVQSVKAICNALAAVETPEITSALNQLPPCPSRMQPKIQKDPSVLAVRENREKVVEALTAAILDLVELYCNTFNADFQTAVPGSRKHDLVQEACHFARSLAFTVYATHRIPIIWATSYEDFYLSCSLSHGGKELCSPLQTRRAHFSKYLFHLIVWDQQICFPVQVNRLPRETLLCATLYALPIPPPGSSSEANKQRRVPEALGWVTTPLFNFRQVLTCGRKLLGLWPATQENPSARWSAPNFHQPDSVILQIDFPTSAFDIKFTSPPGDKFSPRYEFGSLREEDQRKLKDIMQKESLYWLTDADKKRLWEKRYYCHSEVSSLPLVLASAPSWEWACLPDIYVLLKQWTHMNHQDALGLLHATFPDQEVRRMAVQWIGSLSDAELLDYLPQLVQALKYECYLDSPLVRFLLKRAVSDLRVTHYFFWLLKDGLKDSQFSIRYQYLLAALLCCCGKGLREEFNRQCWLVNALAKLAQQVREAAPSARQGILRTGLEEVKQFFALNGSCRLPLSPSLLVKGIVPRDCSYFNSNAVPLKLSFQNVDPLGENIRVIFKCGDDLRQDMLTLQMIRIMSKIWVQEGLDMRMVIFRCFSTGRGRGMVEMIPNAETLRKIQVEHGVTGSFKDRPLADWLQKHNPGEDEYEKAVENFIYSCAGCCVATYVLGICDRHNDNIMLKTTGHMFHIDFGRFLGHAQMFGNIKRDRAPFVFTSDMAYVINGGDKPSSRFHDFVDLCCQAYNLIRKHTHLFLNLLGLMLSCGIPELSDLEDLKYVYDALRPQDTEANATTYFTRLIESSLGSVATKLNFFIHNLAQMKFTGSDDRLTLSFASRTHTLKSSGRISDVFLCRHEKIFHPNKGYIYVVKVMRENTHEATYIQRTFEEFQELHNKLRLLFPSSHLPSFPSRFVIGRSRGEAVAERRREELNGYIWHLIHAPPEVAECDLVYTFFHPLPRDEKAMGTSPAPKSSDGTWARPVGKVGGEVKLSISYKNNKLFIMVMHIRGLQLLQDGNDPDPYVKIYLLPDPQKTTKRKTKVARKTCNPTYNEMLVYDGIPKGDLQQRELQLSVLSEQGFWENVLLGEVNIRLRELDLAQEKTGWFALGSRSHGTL
Method: as §1

[12] = target: T10, panel of ninety-seven kinases (Homo sapiens, UniProt P27361); assay: as above; details: MAPK3; screened at 3000 nM
T10 construct: purchased DiscoverX; host or cells: E. coli (BL21-derived, T7 phage display) or HEK-293
Method: as §1

[13] = target: T11, panel of ninety-seven kinases (Homo sapiens, UniProt P35968); assay: as above; details: KDR; screened at 3000 nM
T11 construct: purchased DiscoverX; host or cells: E. coli (BL21-derived, T7 phage display) or HEK-293
T11 sequence (P35968 20-1356): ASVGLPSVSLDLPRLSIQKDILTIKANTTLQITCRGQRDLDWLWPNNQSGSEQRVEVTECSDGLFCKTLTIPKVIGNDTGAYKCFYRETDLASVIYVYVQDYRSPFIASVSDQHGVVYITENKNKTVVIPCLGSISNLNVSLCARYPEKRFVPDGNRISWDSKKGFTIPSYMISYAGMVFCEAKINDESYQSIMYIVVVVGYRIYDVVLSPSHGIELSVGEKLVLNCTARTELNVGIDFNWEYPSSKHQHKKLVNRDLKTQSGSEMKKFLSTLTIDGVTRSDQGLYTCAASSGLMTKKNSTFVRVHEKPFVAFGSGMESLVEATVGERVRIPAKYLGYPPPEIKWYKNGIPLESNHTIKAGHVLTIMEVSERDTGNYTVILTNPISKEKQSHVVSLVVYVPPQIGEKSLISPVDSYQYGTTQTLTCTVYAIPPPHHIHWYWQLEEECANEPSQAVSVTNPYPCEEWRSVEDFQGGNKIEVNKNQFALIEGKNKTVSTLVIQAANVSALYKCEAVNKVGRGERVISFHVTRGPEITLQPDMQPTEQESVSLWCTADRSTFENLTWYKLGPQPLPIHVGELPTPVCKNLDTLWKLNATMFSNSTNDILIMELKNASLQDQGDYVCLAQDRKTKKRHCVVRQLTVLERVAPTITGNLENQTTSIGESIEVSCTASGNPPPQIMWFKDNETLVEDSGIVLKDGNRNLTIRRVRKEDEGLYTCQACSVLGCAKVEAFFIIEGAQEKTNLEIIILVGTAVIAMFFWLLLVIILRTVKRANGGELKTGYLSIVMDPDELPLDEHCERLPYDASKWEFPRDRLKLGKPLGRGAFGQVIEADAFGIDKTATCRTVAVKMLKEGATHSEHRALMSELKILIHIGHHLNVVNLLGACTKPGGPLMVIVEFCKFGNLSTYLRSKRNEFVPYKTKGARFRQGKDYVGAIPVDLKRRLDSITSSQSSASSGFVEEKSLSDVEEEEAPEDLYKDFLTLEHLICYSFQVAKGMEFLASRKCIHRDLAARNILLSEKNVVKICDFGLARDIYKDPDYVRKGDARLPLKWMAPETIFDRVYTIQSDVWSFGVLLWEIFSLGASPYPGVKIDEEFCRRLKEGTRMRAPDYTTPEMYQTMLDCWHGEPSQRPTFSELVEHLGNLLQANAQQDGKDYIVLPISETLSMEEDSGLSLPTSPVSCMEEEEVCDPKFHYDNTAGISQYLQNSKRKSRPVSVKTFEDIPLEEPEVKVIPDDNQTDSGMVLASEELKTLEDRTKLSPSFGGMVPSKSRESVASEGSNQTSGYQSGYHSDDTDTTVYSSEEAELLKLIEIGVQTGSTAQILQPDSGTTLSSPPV
Method: as §1

[14] = target: T12, panel of ninety-seven kinases (Homo sapiens, UniProt P36888); assay: as above; details: FLT3; screened at 3000 nM
T12 construct: purchased DiscoverX; host or cells: E. coli (BL21-derived, T7 phage display) or HEK-293
T12 sequence (P36888 27-993): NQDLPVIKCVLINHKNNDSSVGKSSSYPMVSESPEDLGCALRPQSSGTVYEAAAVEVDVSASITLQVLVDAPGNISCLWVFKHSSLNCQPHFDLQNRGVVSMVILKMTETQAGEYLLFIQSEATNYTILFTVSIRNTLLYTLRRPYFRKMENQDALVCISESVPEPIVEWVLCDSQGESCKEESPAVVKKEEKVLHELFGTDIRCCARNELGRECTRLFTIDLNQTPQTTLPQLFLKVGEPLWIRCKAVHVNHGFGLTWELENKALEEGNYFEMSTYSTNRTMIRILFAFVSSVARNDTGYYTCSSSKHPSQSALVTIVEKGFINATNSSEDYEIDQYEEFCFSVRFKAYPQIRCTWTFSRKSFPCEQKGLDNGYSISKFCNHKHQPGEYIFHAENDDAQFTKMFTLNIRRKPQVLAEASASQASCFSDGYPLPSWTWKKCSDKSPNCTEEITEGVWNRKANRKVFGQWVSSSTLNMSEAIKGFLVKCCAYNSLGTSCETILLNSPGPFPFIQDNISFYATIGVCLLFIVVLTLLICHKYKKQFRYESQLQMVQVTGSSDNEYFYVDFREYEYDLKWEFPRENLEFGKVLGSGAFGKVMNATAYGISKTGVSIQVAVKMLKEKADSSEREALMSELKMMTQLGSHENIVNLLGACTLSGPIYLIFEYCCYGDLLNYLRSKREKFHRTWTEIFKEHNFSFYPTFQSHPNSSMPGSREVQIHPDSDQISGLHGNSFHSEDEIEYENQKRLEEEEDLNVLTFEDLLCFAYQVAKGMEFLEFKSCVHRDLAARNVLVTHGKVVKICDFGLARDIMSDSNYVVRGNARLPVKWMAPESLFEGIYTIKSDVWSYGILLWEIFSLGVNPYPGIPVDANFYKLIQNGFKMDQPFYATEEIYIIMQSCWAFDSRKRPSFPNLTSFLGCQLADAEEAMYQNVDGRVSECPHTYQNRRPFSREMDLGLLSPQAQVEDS
Method: as §1

`CN(C)CCNC(=O)c1ccc(-c2ccc(-c3ccc(Cl)cc3)n2-c2ccccc2C(F)(F)F)cc1` (single isomer, unassigned) [Atropisomer A-2] gave a GI50 [1] of 2.08 nM, a CI ([2]; 2 mg/Kg IV, plasma) of 20.5 mL/min/kg and an F ([2]; 10 mg/Kg PO vs 2 mg/Kg IV) of 76%. For the same compound, the “% Ctrl @ 3 μM” value [3] was 98 % Ctrl, the “% Ctrl @ 3 μM” value [4] was 100 % Ctrl and the “% Ctrl @ 3 μM” value [5] was 98 % Ctrl. For the same compound, the “% Ctrl @ 3 μM” value [6] was 100 % Ctrl, the “% Ctrl @ 3 μM” value [7] was 99 % Ctrl and the “% Ctrl @ 3 μM” value [8] was 100 % Ctrl. For the same compound, the “% Ctrl @ 3 μM” value [9] was 100 % Ctrl, the “% Ctrl @ 3 μM” value [10] was 99 % Ctrl and the “% Ctrl @ 3 μM” value [11] was 100 % Ctrl. For the same compound, the “% Ctrl @ 3 μM” value [12] was 99 % Ctrl, the “% Ctrl @ 3 μM” value [13] was 100 % Ctrl and the “% Ctrl @ 3 μM” value [14] was 100 % Ctrl.
